Experimental data reported in BindingDB's records for doi:10.1021/jm00159a020 (1986).

Test: Potency against rat brain adenosine A1 receptor at 10 uM

% displacement at 10 µM: 10%
Compound: CCCCN(C)C(=O)[C@H]1OC(n2cnc3c(NC(CC)CC)ncnc32)[C@H](O)[C@@H]1O (stereo partly specified)
